Values of other authors as cited in US12551470B2, “Metabolism enhancing compositions” (Red Mountain Med Spa, LLC, priority 2022, dated 2026).

Tests used:
[1] = compared to the other phytochemicals (11 phytochemicals, Tomer et al., J. Med. Food 2007)
[2] = compared to the other phytochemicals (11 phytochemicals, Tomer et al., J. Med. Food 2007); remark: listed apart in the source

## O=C(O)CCCC[C@@H]1CCSS1 [α-lipoic acid, (R)-5-(1,2-dithiolan-3-yl)pentanoic acid]
[1]
  ORAC values: low
[2]
  TOSC values: high
